Data on 3 molecules can be found in patent US20080039485A1, “LOW-DOSE-LONG-TERM PHARMACEUTICAL COMPOSITION COMPRISING CAMPTOTHECIN DERIVATIVES FOR THE TREATMENT OF CANCERS” (TARGETGEN BIOTECHNOLOGY CO., LTD., priority 2006, published 2008).

For data set [1] the following is noted: well known in the art; cited from earlier work.
In data set [2] the test system is human colon cancer Colo-205 cells. In words: MTT assay of cell growth, Colo-205. It is filed as cell-based. As to the method:
(§1) Two human colon cancer cell lines, Colo-205 (ATCC accession No. CCL-222) and HT-29 (ATCC accession No. HTB-38), were used in this study. Cells were treated with 0.2, 0.76, 1.52, 7.62, 15.24, 22.87, 30.49, 38.11, 45.73 or 53.35 μM 10-HCPT or CPT-11 for 1-3 days, and the relative number of the viable cells was determined by MTT assay as described below.
(§2) Cells were seeded in a 24-well cell culture cluster (Costar, Cambridge, Mass.) at a density of 1×10^6 cells per mL and cultured overnight prior to drug treatment. After 10-HCPT or CPT-11 treatment for 3 days, the medium was discarded and replaced with an equal volume (0.5 mL) of fresh medium containing 0.456 mg/mL 3-[4,5-dimethylthiazol-2-yl]-2,5-diphenyl-tetrazolium bromide (MTT; Sigma Chemical Company) and incubated for 2 hours at 37° C. in the dark. The medium was discarded, and cells were then combined with […] dimethyl sulfoxide (Sigma Chemical Company) to dissolve the formazan produced. Cell viability was determined according to the calorimetric comparison by reading optical density (OD) values from a microplate reader (Spectra Max 250; Spectra Diode Laboratories, CA) at an absorption wavelength of 570 nm.
(Formazan colour is commonly taken as a measure of viable cells.)

Data set [3] has as its system human colon cancer HT-29 cells. Briefly: MTT assay of cell growth, HT-29. It is filed as cell-based. Conditions: HT-29, days 1-3, MTT. The protocol: as §1, §2

Take `CC[C@@]1(O)C(=O)OCc2c1cc1n(c2=O)Cc2cc3ccccc3nc2-1` [CPT, Camptothecin]: in data set [1], the water-solubility result was “water-insoluble”.
With irinotecan [CPT-11], the “concentration at which significant growth inhibition was observed” value in data set [2] (Colo-205, day 2 and day 3, MTT, vs vehicle controls) turned out to be 22.87 µM. The “concentration at which complete growth inhibition was observed” value in data set [2] (Colo-205, days 1-3, MTT) amounted to 38.11 µM; in data set [3], 45.73 µM. For the same molecule, the water-solubility result in data set [1] is “better water-solubility than CPT”.
As for `CC[C@@]1(O)C(=O)OCc2c1cc1n(c2=O)Cc2cc3c(CN(C)C)c(O)ccc3nc2-1` [topotecan], the water-solubility result in data set [1] is given as “better water-solubility than CPT”.
